In US8192962B2, “Processes for detecting toxic substances” (Daikin Industries, Ltd., priority 2001, dated 2012):

Test system: Stress protein genes
Assay: DNA chip mRNA expression in yeast, stress protein genes (Table 6)
Format: cell-based, Saccharomyces cerevisiae S288C
How it was run: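 Chemical exposure: 2 h, log-phase S. cerevisiae S288C, YPD, 25° C., dose set to inhibit growth without death. Profiling: mRNA labeled by reverse transcription with Cy3- or Cy5-dUTP, hybridized to whole-genome array. Output: fluorescence ratio against untreated culture.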

## COc1cc(CNC(=O)CCCCC=CC(C)C)ccc1O [(12), 8-methyl-N-vanillyl-6-nonenamide]
Yeast gene YAL005C
  The level of expressed mRNA in the presence of chemical substance/The level of expressed mRNA in the absence of chemical substance: 1.2
Yeast gene YAL015C
  The level of expressed mRNA in the presence of chemical substance/The level of expressed mRNA in the absence of chemical substance: 1.0
Yeast gene YBL075C
  The level of expressed mRNA in the presence of chemical substance/The level of expressed mRNA in the absence of chemical substance: 1.1
Yeast gene YBL093C
  The level of expressed mRNA in the presence of chemical substance/The level of expressed mRNA in the absence of chemical substance: 1.1
Yeast gene YBR044C
  The level of expressed mRNA in the presence of chemical substance/The level of expressed mRNA in the absence of chemical substance: 0.8
Yeast gene YBR054W
  The level of expressed mRNA in the presence of chemical substance/The level of expressed mRNA in the absence of chemical substance: 0.7
Yeast gene YBR067C
  The level of expressed mRNA in the presence of chemical substance/The level of expressed mRNA in the absence of chemical substance: 1.0
Yeast gene YBR072W
  The level of expressed mRNA in the presence of chemical substance/The level of expressed mRNA in the absence of chemical substance: 16.3
Yeast gene YBR126C
  The level of expressed mRNA in the presence of chemical substance/The level of expressed mRNA in the absence of chemical substance: 1.3
Yeast gene YBR169C
  The level of expressed mRNA in the presence of chemical substance/The level of expressed mRNA in the absence of chemical substance: 1.7
Yeast gene YCL035C
  The level of expressed mRNA in the presence of chemical substance/The level of expressed mRNA in the absence of chemical substance: 1.5
Yeast gene YCR021C
  The level of expressed mRNA in the presence of chemical substance/The level of expressed mRNA in the absence of chemical substance: 0.5
Yeast gene YCR060W
  The level of expressed mRNA in the presence of chemical substance/The level of expressed mRNA in the absence of chemical substance: 1.7
Yeast gene YCR083W
  The level of expressed mRNA in the presence of chemical substance/The level of expressed mRNA in the absence of chemical substance: 1.1
Yeast gene YDL022W
  The level of expressed mRNA in the presence of chemical substance/The level of expressed mRNA in the absence of chemical substance: 1.2
Yeast gene YDL025C
  The level of expressed mRNA in the presence of chemical substance/The level of expressed mRNA in the absence of chemical substance: 0.9
Yeast gene YDR033W
  The level of expressed mRNA in the presence of chemical substance/The level of expressed mRNA in the absence of chemical substance: 1.0
Yeast gene YDR077W
  The level of expressed mRNA in the presence of chemical substance/The level of expressed mRNA in the absence of chemical substance: 0.8
Yeast gene YDR098C
  The level of expressed mRNA in the presence of chemical substance/The level of expressed mRNA in the absence of chemical substance: 1.3
Yeast gene YDR155C
  The level of expressed mRNA in the presence of chemical substance/The level of expressed mRNA in the absence of chemical substance: 1.4
Yeast gene YDR258C
  The level of expressed mRNA in the presence of chemical substance/The level of expressed mRNA in the absence of chemical substance: 1.8
Yeast gene YDR293C
  The level of expressed mRNA in the presence of chemical substance/The level of expressed mRNA in the absence of chemical substance: 0.9
Yeast gene YDR436W
  The level of expressed mRNA in the presence of chemical substance/The level of expressed mRNA in the absence of chemical substance: 0.9
Yeast gene YDR513W
  The level of expressed mRNA in the presence of chemical substance/The level of expressed mRNA in the absence of chemical substance: 0.9
Yeast gene YDR519W
  The level of expressed mRNA in the presence of chemical substance/The level of expressed mRNA in the absence of chemical substance: 1.7
Yeast gene YEL030W
  The level of expressed mRNA in the presence of chemical substance/The level of expressed mRNA in the absence of chemical substance: 0.9
Yeast gene YEL039C
  The level of expressed mRNA in the presence of chemical substance/The level of expressed mRNA in the absence of chemical substance: 0.6
Yeast gene YER042W
  The level of expressed mRNA in the presence of chemical substance/The level of expressed mRNA in the absence of chemical substance: 1.1
Yeast gene YER057C
  The level of expressed mRNA in the presence of chemical substance/The level of expressed mRNA in the absence of chemical substance: 1.5
Yeast gene YER103W
  The level of expressed mRNA in the presence of chemical substance/The level of expressed mRNA in the absence of chemical substance: 1.9
Yeast gene YER125W
  The level of expressed mRNA in the presence of chemical substance/The level of expressed mRNA in the absence of chemical substance: 0.7
Yeast gene YFL014W
  The level of expressed mRNA in the presence of chemical substance/The level of expressed mRNA in the absence of chemical substance: 4.3
Yeast gene YFL016C
  The level of expressed mRNA in the presence of chemical substance/The level of expressed mRNA in the absence of chemical substance: 1.0
Yeast gene YFL020C
  The level of expressed mRNA in the presence of chemical substance/The level of expressed mRNA in the absence of chemical substance: 1.3
Yeast gene YFR052W
  The level of expressed mRNA in the presence of chemical substance/The level of expressed mRNA in the absence of chemical substance: 1.8
Yeast gene YGL073W
  The level of expressed mRNA in the presence of chemical substance/The level of expressed mRNA in the absence of chemical substance: 0.8
Yeast gene YGL115W
  The level of expressed mRNA in the presence of chemical substance/The level of expressed mRNA in the absence of chemical substance: 0.9
Yeast gene YGL181W
  The level of expressed mRNA in the presence of chemical substance/The level of expressed mRNA in the absence of chemical substance: 1.0
Yeast gene YGR088W
  The level of expressed mRNA in the presence of chemical substance/The level of expressed mRNA in the absence of chemical substance: 1.1
Yeast gene YHL028W
  The level of expressed mRNA in the presence of chemical substance/The level of expressed mRNA in the absence of chemical substance: 1.5
Yeast gene YHL046C
  The level of expressed mRNA in the presence of chemical substance/The level of expressed mRNA in the absence of chemical substance: 1.1
Yeast gene YHR030C
  The level of expressed mRNA in the presence of chemical substance/The level of expressed mRNA in the absence of chemical substance: 0.7
Yeast gene YHR057C
  The level of expressed mRNA in the presence of chemical substance/The level of expressed mRNA in the absence of chemical substance: 1.1
Yeast gene YHR104W
  The level of expressed mRNA in the presence of chemical substance/The level of expressed mRNA in the absence of chemical substance: 1.0
Yeast gene YIL011W
  The level of expressed mRNA in the presence of chemical substance/The level of expressed mRNA in the absence of chemical substance: 0.6
Yeast gene YIL033C
  The level of expressed mRNA in the presence of chemical substance/The level of expressed mRNA in the absence of chemical substance: 1.1
Yeast gene YIR037W
  The level of expressed mRNA in the presence of chemical substance/The level of expressed mRNA in the absence of chemical substance: 1.3
Yeast gene YIR038C
  The level of expressed mRNA in the presence of chemical substance/The level of expressed mRNA in the absence of chemical substance: 1.1
Yeast gene YJL128C
  The level of expressed mRNA in the presence of chemical substance/The level of expressed mRNA in the absence of chemical substance: 1.0
Yeast gene YJL158C
  The level of expressed mRNA in the presence of chemical substance/The level of expressed mRNA in the absence of chemical substance: 1.1
Yeast gene YJL159W
  The level of expressed mRNA in the presence of chemical substance/The level of expressed mRNA in the absence of chemical substance: 1.0
Yeast gene YJL165C
  The level of expressed mRNA in the presence of chemical substance/The level of expressed mRNA in the absence of chemical substance: 0.9
Yeast gene YJR045C
  The level of expressed mRNA in the presence of chemical substance/The level of expressed mRNA in the absence of chemical substance: 1.0
Yeast gene YJR090C
  The level of expressed mRNA in the presence of chemical substance/The level of expressed mRNA in the absence of chemical substance: 0.8
Yeast gene YKL161C
  The level of expressed mRNA in the presence of chemical substance/The level of expressed mRNA in the absence of chemical substance: 0.9
Yeast gene YKL163W
  The level of expressed mRNA in the presence of chemical substance/The level of expressed mRNA in the absence of chemical substance: 0.9
Yeast gene YKL164C
  The level of expressed mRNA in the presence of chemical substance/The level of expressed mRNA in the absence of chemical substance: 0.8
Yeast gene YKL210W
  The level of expressed mRNA in the presence of chemical substance/The level of expressed mRNA in the absence of chemical substance: 1.3
Yeast gene YKR053C
  The level of expressed mRNA in the presence of chemical substance/The level of expressed mRNA in the absence of chemical substance: 0.7
Yeast gene YLL024C
  The level of expressed mRNA in the presence of chemical substance/The level of expressed mRNA in the absence of chemical substance: 1.0
Yeast gene YLL026W
  The level of expressed mRNA in the presence of chemical substance/The level of expressed mRNA in the absence of chemical substance: 1.9
Yeast gene YLL039C
  The level of expressed mRNA in the presence of chemical substance/The level of expressed mRNA in the absence of chemical substance: 1.0
Yeast gene YLL060C
  The level of expressed mRNA in the presence of chemical substance/The level of expressed mRNA in the absence of chemical substance: 1.1
Yeast gene YLR006C
  The level of expressed mRNA in the presence of chemical substance/The level of expressed mRNA in the absence of chemical substance: 0.7
Yeast gene YLR109W
  The level of expressed mRNA in the presence of chemical substance/The level of expressed mRNA in the absence of chemical substance: 1.6
Yeast gene YLR259C
  The level of expressed mRNA in the presence of chemical substance/The level of expressed mRNA in the absence of chemical substance: 0.7
Yeast gene YML007W
  The level of expressed mRNA in the presence of chemical substance/The level of expressed mRNA in the absence of chemical substance: 1.1
Yeast gene YML070W
  The level of expressed mRNA in the presence of chemical substance/The level of expressed mRNA in the absence of chemical substance: 1.3
Yeast gene YMR021C
  The level of expressed mRNA in the presence of chemical substance/The level of expressed mRNA in the absence of chemical substance: 0.8
Yeast gene YMR173W
  The level of expressed mRNA in the presence of chemical substance/The level of expressed mRNA in the absence of chemical substance: 1.4
Yeast gene YMR186W
  The level of expressed mRNA in the presence of chemical substance/The level of expressed mRNA in the absence of chemical substance: 1.0
Yeast gene YNL064C
  The level of expressed mRNA in the presence of chemical substance/The level of expressed mRNA in the absence of chemical substance: 0.8
Yeast gene YNL160W
  The level of expressed mRNA in the presence of chemical substance/The level of expressed mRNA in the absence of chemical substance: 1.4
Yeast gene YNL241C
  The level of expressed mRNA in the presence of chemical substance/The level of expressed mRNA in the absence of chemical substance: 2.0
Yeast gene YNR076W
  The level of expressed mRNA in the presence of chemical substance/The level of expressed mRNA in the absence of chemical substance: 0.7
Yeast gene YOL064C
  The level of expressed mRNA in the presence of chemical substance/The level of expressed mRNA in the absence of chemical substance: 0.9
Yeast gene YOL161C
  The level of expressed mRNA in the presence of chemical substance/The level of expressed mRNA in the absence of chemical substance: 1.3
Yeast gene YOR008C
  The level of expressed mRNA in the presence of chemical substance/The level of expressed mRNA in the absence of chemical substance: 0.7
Yeast gene YOR009W
  The level of expressed mRNA in the presence of chemical substance/The level of expressed mRNA in the absence of chemical substance: 0.4
Yeast gene YOR010C
  The level of expressed mRNA in the presence of chemical substance/The level of expressed mRNA in the absence of chemical substance: 0.5
Yeast gene YOR027W
  The level of expressed mRNA in the presence of chemical substance/The level of expressed mRNA in the absence of chemical substance: 1.3
Yeast gene YOR208W
  The level of expressed mRNA in the presence of chemical substance/The level of expressed mRNA in the absence of chemical substance: 1.2
Yeast gene YPL059W
  The level of expressed mRNA in the presence of chemical substance/The level of expressed mRNA in the absence of chemical substance: 0.8
Yeast gene YPL106C
  The level of expressed mRNA in the presence of chemical substance/The level of expressed mRNA in the absence of chemical substance: 1.1
Yeast gene YPL140C
  The level of expressed mRNA in the presence of chemical substance/The level of expressed mRNA in the absence of chemical substance: 0.8
Yeast gene YPL194W
  The level of expressed mRNA in the presence of chemical substance/The level of expressed mRNA in the absence of chemical substance: 0.9
Yeast gene YPL223C
  The level of expressed mRNA in the presence of chemical substance/The level of expressed mRNA in the absence of chemical substance: 0.9
Yeast gene YPL240C
  The level of expressed mRNA in the presence of chemical substance/The level of expressed mRNA in the absence of chemical substance: 0.8
Yeast gene YPR005C
  The level of expressed mRNA in the presence of chemical substance/The level of expressed mRNA in the absence of chemical substance: 0.6
Yeast gene YPR026W
  The level of expressed mRNA in the presence of chemical substance/The level of expressed mRNA in the absence of chemical substance: 1.2
